Assay results published in the supplement of paper PMC10307832.

Key:
Experiment in all cases: relative viability (nuclei count vs DMSO), 5 days (fraction); higher = more cells survive
[1] = tested on: 201T
Method in brief: (§1)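 Relative viability is defined as nuclei in treated wells over nuclei in vehicle wells. Duplicate plates were run and medians reported. Lung cancer cell lines in 1536-well plates were dosed by pin tool one day after seeding, with one drug or with a fixed anchor-drug dose plus five library-drug doses (not always all listed) in √10 steps, and nuclei were counted after 5 days.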

[2] = tested on: ABC-1
Method in brief: as §1

[3] = tested on: EMC-BAC-2
Method in brief: as §1

[4] = tested on: EPLC-272H
Method in brief: as §1

[5] = tested on: HCC-78
Method in brief: as §1

[6] = tested on: LCLC-103H
Method in brief: as §1

[7] = tested on: LOU-NH91
Method in brief: as §1

[8] = tested on: NCI-H1395
Method in brief: as §1

[9] = tested on: NCI-H1437
Method in brief: as §1

[10] = tested on: NCI-H1651
Method in brief: as §1

[11] = tested on: NCI-H1734
Method in brief: as §1

[12] = tested on: NCI-H1793
Method in brief: as §1

[13] = tested on: NCI-H1915
Method in brief: as §1

[14] = tested on: NCI-H1975
Method in brief: as §1

[15] = tested on: NCI-H2023
Method in brief: as §1

[16] = tested on: NCI-H23
Method in brief: as §1

[17] = tested on: NCI-H2405
Method in brief: as §1

[18] = tested on: NCI-H647
Method in brief: as §1

[19] = tested on: NCI-H661
Method in brief: as §1

[20] = tested on: RERF-LC-KJ
Method in brief: as §1

[21] = tested on: SK-LU-1
Method in brief: as §1

[22] = tested on: UMC-11
Method in brief: as §1

Q: Which relative viability ([1]; first compound 0.08 µM) does the source give for `Cc1cnc(-c2cnc(NCCNc3ccc(C#N)cn3)nc2-c2ccc(Cl)cc2Cl)[nH]1` + O=C(CCCCCCC(=O)Nc1ccccc1)NO [Vorinostat] (partner 1 µM) here?
A: 1.01

Q: And the relative viability ([1]; first compound 0.8 µM)?
A: 0.977

Q: What about the relative viability ([1]; first compound 2.53 µM) of the same molecule?
A: 0.912

Q: What about the relative viability ([2]; first compound 0.08 µM) of the same molecule?
A: 1.24

Q: What about the relative viability ([2]; first compound 0.253 µM) of the same molecule?
A: 0.871

Q: What about the relative viability ([2]; first compound 0.8 µM) of the same molecule?
A: 1.06

Q: And the relative viability ([2]; first compound 2.53 µM)?
A: 1.15

Q: What about the relative viability ([3]; first compound 0.08 µM) of the same molecule?
A: 0.46

Q: What about the relative viability ([3]; first compound 0.253 µM) of the same molecule?
A: 0.397

Q: What about the relative viability ([3]; first compound 0.8 µM) of the same molecule?
A: 0.373

Q: And the relative viability ([3]; first compound 2.53 µM)?
A: 0.372

Q: And the relative viability ([4]; first compound 0.08 µM)?
A: 0.658

Q: And the relative viability ([4]; first compound 0.8 µM)?
A: 0.531

Q: What about the relative viability ([4]; first compound 2.53 µM) of the same molecule?
A: 0.581

Q: What about the relative viability ([5]; first compound 0.08 µM) of the same molecule?
A: 0.553

Q: And the relative viability ([5]; first compound 0.253 µM)?
A: 0.438

Q: And the relative viability ([5]; first compound 0.8 µM)?
A: 0.39

Q: And the relative viability ([5]; first compound 2.53 µM)?
A: 0.427

Q: What about the relative viability ([6]; first compound 0.08 µM) of the same molecule?
A: 0.728

Q: What about the relative viability ([6]; first compound 0.253 µM) of the same molecule?
A: 0.541

Q: And the relative viability ([6]; first compound 0.8 µM)?
A: 0.689

Q: And the relative viability ([6]; first compound 2.53 µM)?
A: 0.698

Q: What about the relative viability ([7]; first compound 0.08 µM) of the same molecule?
A: 0.972

Q: What about the relative viability ([7]; first compound 0.253 µM) of the same molecule?
A: 0.878

Q: What about the relative viability ([7]; first compound 0.8 µM) of the same molecule?
A: 0.942

Q: What about the relative viability ([7]; first compound 2.53 µM) of the same molecule?
A: 0.978

Q: And the relative viability ([8]; first compound 0.08 µM)?
A: 0.847

Q: What about the relative viability ([8]; first compound 0.253 µM) of the same molecule?
A: 0.577

Q: And the relative viability ([8]; first compound 0.8 µM)?
A: 0.62

Q: What about the relative viability ([8]; first compound 2.53 µM) of the same molecule?
A: 0.6

Q: What about the relative viability ([9]; first compound 0.08 µM) of the same molecule?
A: 0.829

Q: And the relative viability ([9]; first compound 0.253 µM)?
A: 0.774

Q: And the relative viability ([9]; first compound 0.8 µM)?
A: 0.828

Q: What about the relative viability ([9]; first compound 2.53 µM) of the same molecule?
A: 0.853

Q: And the relative viability ([10]; first compound 0.08 µM)?
A: 0.539

Q: What about the relative viability ([10]; first compound 0.253 µM) of the same molecule?
A: 0.459

Q: And the relative viability ([10]; first compound 0.8 µM)?
A: 0.537

Q: What about the relative viability ([10]; first compound 2.53 µM) of the same molecule?
A: 0.58

Q: What about the relative viability ([11]; first compound 0.08 µM) of the same molecule?
A: 0.88

Q: And the relative viability ([11]; first compound 0.253 µM)?
A: 0.693

Q: And the relative viability ([11]; first compound 0.8 µM)?
A: 0.745

Q: And the relative viability ([11]; first compound 2.53 µM)?
A: 0.661

Q: What about the relative viability ([12]; first compound 0.08 µM) of the same molecule?
A: 0.59

Q: And the relative viability ([12]; first compound 0.253 µM)?
A: 0.666

Q: And the relative viability ([12]; first compound 0.8 µM)?
A: 0.739

Q: What about the relative viability ([12]; first compound 2.53 µM) of the same molecule?
A: 0.864

Q: And the relative viability ([13]; first compound 0.08 µM)?
A: 0.532

Q: What about the relative viability ([13]; first compound 0.8 µM) of the same molecule?
A: 0.504

Q: And the relative viability ([13]; first compound 2.53 µM)?
A: 0.513

Q: What about the relative viability ([14]; first compound 0.08 µM) of the same molecule?
A: 0.783

Q: And the relative viability ([14]; first compound 0.253 µM)?
A: 0.699

Q: What about the relative viability ([14]; first compound 0.8 µM) of the same molecule?
A: 0.732

Q: And the relative viability ([14]; first compound 2.53 µM)?
A: 0.614

Q: What about the relative viability ([15]; first compound 0.08 µM) of the same molecule?
A: 0.897

Q: What about the relative viability ([15]; first compound 0.253 µM) of the same molecule?
A: 0.473

Q: What about the relative viability ([15]; first compound 0.8 µM) of the same molecule?
A: 0.465

Q: And the relative viability ([15]; first compound 2.53 µM)?
A: 0.731

Q: And the relative viability ([16]; first compound 0.08 µM)?
A: 0.568

Q: And the relative viability ([16]; first compound 0.253 µM)?
A: 0.475

Q: And the relative viability ([16]; first compound 0.8 µM)?
A: 0.575

Q: And the relative viability ([16]; first compound 2.53 µM)?
A: 0.529

Q: What about the relative viability ([17]; first compound 0.08 µM) of the same molecule?
A: 1.02

Q: And the relative viability ([17]; first compound 0.253 µM)?
A: 0.985

Q: And the relative viability ([17]; first compound 0.8 µM)?
A: 0.909

Q: And the relative viability ([17]; first compound 2.53 µM)?
A: 0.661

Q: What about the relative viability ([18]; first compound 0.08 µM) of the same molecule?
A: 0.609

Q: And the relative viability ([18]; first compound 0.253 µM)?
A: 0.399

Q: What about the relative viability ([18]; first compound 0.8 µM) of the same molecule?
A: 0.743

Q: And the relative viability ([18]; first compound 2.53 µM)?
A: 0.357

Q: And the relative viability ([19]; first compound 0.08 µM)?
A: 0.906

Q: And the relative viability ([19]; first compound 0.253 µM)?
A: 0.774

Q: And the relative viability ([19]; first compound 0.8 µM)?
A: 0.782

Q: And the relative viability ([19]; first compound 2.53 µM)?
A: 0.731

Q: And the relative viability ([20]; first compound 0.08 µM)?
A: 0.815

Q: And the relative viability ([20]; first compound 0.253 µM)?
A: 0.565

Q: And the relative viability ([20]; first compound 0.8 µM)?
A: 0.58

Q: What about the relative viability ([20]; first compound 2.53 µM) of the same molecule?
A: 0.677

Q: What about the relative viability ([21]; first compound 0.08 µM) of the same molecule?
A: 0.735

Q: And the relative viability ([21]; first compound 0.253 µM)?
A: 0.818

Q: And the relative viability ([21]; first compound 0.8 µM)?
A: 0.849

Q: And the relative viability ([21]; first compound 2.53 µM)?
A: 0.85

Q: And the relative viability ([22]; first compound 0.08 µM)?
A: 0.403

Q: And the relative viability ([22]; first compound 0.253 µM)?
A: 0.387

Q: What about the relative viability ([22]; first compound 0.8 µM) of the same molecule?
A: 0.411

Q: What about the relative viability ([22]; first compound 2.53 µM) of the same molecule?
A: 0.511
